Data as given in PubChem BioAssay AID1963420 (Molecular Pharmacology Branch, DTP, NCI, 2024).

Test system: 494315-158-R-J1-PDC complex spheroid growth, percent test/control
Test: Anticancer human tumor 494315-158-R-J1-PDC patient-derived soft tissue sarcoma cell line growth inhibition [Asc]
Conditions: for IC50: curve of first compound; for viability, T/C: stronger effect = lower value
How it was run: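 Tumor cells were grown as multicellular spheroids with stromal HUVEC and mesenchymal stem cells and treated singly or in combination. Concentrations fell in half-log steps from the clinical Cmax, or from 10 microM where none was known.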
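Note: compound exposure lasted seven days after spheroids formed for three days.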

`Cc1nc(N2CCC3(CC2)COC(C)C3N)c(CO)nc1Sc1ccnc(N)c1Cl` (stereo not given) + CNC(C)C(=O)NC1CN(S(=O)(=O)c2cccc(S(=O)(=O)N3CCC4CCC(C(=O)NC(c5ccccc5)c5ccccc5)N4C(=O)C(NC(=O)C(C)NC)C3)c2)CCC2CCC(C(=O)NC(c3ccccc3)c3ccccc3)N2C1=O showed an IC50 (second compound 0.01 µM) greater than 3000 nM, an IC50 (second compound 0.0316 µM) greater than 3000 nM and an IC50 (second compound 0.1 µM) of 941 nM. It also gave an IC50 (second compound 0.316 µM) of less than 9.49 nM, an IC50 (second compound 1 µM) of less than 9.49 nM and a viability, T/C (second compound 0.01 µM, first compound 0.00949 µM) of 72.2%. The viability, T/C (second compound 0.01 µM, first compound 0.03 µM) was 59.6%, the viability, T/C (second compound 0.01 µM, first compound 0.0949 µM) was 64.1% and the viability, T/C (second compound 0.01 µM, first compound 0.3 µM) was 60.8%. It also gave a viability, T/C (second compound 0.01 µM, first compound 0.949 µM) of 62.7%, a viability, T/C (second compound 0.01 µM, first compound 3 µM) of 52.1% and a viability, T/C (second compound 0.0316 µM, first compound 0.00949 µM) of 60.7%. For the same compound, the viability, T/C (second compound 0.0316 µM, first compound 0.03 µM) was 69.7%, the viability, T/C (second compound 0.0316 µM, first compound 0.0949 µM) was 64.3% and the viability, T/C (second compound 0.0316 µM, first compound 0.3 µM) was 55.6%. For the same compound, the viability, T/C (second compound 0.0316 µM, first compound 0.949 µM) was 60.8%, the viability, T/C (second compound 0.0316 µM, first compound 3 µM) was 51% and the viability, T/C (second compound 0.1 µM, first compound 0.00949 µM) was 59.7%. For the same compound, the viability, T/C (second compound 0.1 µM, first compound 0.03 µM) was 55.6%, the viability, T/C (second compound 0.1 µM, first compound 0.0949 µM) was 50.6% and the viability, T/C (second compound 0.1 µM, first compound 0.3 µM) was 49.1%. For the same compound, the viability, T/C (second compound 0.1 µM, first compound 0.949 µM) was 59.1%, the viability, T/C (second compound 0.1 µM, first compound 3 µM) was 43.7% and the viability, T/C (second compound 0.316 µM, first compound 0.00949 µM) was 48.3%. For the same compound, the viability, T/C (second compound 0.316 µM, first compound 0.03 µM) was 48.6%, the viability, T/C (second compound 0.316 µM, first compound 0.0949 µM) was 47.2% and the viability, T/C (second compound 0.316 µM, first compound 0.3 µM) was 37.1%. It also gave a viability, T/C (second compound 0.316 µM, first compound 0.949 µM) of 42.8%, a viability, T/C (second compound 0.316 µM, first compound 3 µM) of 49.5% and a viability, T/C (second compound 1 µM, first compound 0.00949 µM) of 38.7%. For the same compound, the viability, T/C (second compound 1 µM, first compound 0.03 µM) was 44.2%, the viability, T/C (second compound 1 µM, first compound 0.0949 µM) was 44.3% and the viability, T/C (second compound 1 µM, first compound 0.3 µM) was 36.8%. For the same compound, the viability, T/C (second compound 1 µM, first compound 0.949 µM) was 40% and the viability, T/C (second compound 1 µM, first compound 3 µM) was 39.2%.
